From patent publication US20120270929A1, “MODULATION OF TTC39 EXPRESSION TO INCREASE HDL” (ISIS Pharmaceuticals, Inc., priority 2009, published 2012)
Oligonucleotides are written 5' to 3', each unit as a sugar letter and its base; * is a phosphorothioate linkage, no mark a phosphodiester; rarer units and linkages stand in square brackets, end groups in braces. Plain capitals give the bases only. e = 2'-O-(2-methoxyethyl) (MOE); [5mC] = 5-methylcytosine; d = 2'-deoxy (DNA)

Legend:
[1] = system: murine TTC39B mRNA; assay: Dose-dependent antisense inhibition of murine TTC39B in mouse primary hepatocytes (Example 2); type: cell-based; conditions: cytofectin, ~16 h
Procedure: Cells were plated at a density of 10,000 cells per well and transfected using cytofectin reagent with 25 nM, 50 nM, 100 nM, and 200 nM concentrations of antisense oligonucleotide, as specified in Table 3. After a treatment period of approximately 16 hours, RNA was isolated from the cells and TTC39B mRNA levels were measured by quantitative real-time PCR. Murine primer probe set mTtc39b_LTS00287 (forward sequence: […], incorporated herein as SEQ ID NO: 94; reverse sequence: […], incorporated herein as SEQ ID NO: 95; probe sequence: […], incorporated herein as SEQ ID NO: 96) was used to measure mRNA levels. TTC39B mRNA levels were adjusted according to total RNA content, as measured by RIBOGREEN®. Results are presented as percent inhibition of TTC39B, relative to untreated control cells.

[2] = Plasma cholesterol and triglycerides in C57BL/6 mice (Olympus AU400e); type: in vivo, mouse
Procedure: (§1) Four groups of five mice each were injected twice a week with 25 mg/kg (totaling 50 mg/kg/week) of ISIS 447114, ISIS 447118, ISIS 447143, or ISIS 447144 for 6 weeks. A control group of five mice was injected with phosphate buffered saline (PBS) twice a week for 6 weeks. Plasma samples were obtained before the start of treatment, at week 3 and at week 6. At the end of the treatment period, mice were fasted for 4 hours before being euthanized. Plasma and tissue samples were obtained for further analysis.
To investigate the effect of inhibition of TTC39B on triglycerides and cholesterol levels in the plasma, samples were collected on weeks 0, 3, and 6, and total plasma cholesterol, LDL cholesterol, HDL cholesterol, and triglycerides were analyzed on an Olympus AU400e Analyzer.

[3] = Body and organ weights in C57BL/6 mice; type: in vivo, mouse
Procedure: as §1
Body weights of all the mice were measured weekly till the end of the treatment period. Organ weights were taken at the end of the treatment period when the mice were euthanized.

[4] = Plasma glucose in C57BL/6 mice (glucose oxidase assay); type: in vivo, mouse
Procedure: as §1
Plasma glucose values were determined using a Beckman Glucose Analyzer II (Beckman Coulter) by a glucose oxidase assay. As presented in Table 14, there was no significant change in glucose levels after treatment with ISIS oligonucleotides.

[5] = system: SRB1 mRNA; assay: SRB1 mRNA levels in C57BL/6 mice after TTC39B inhibition; type: in vivo, mouse; conditions: 50 mg/kg/week, 6 weeks
Procedure: as §1
The effect of inhibition of TTC39B in mice on these proteins of reverse cholesterol transport was studied. RNA levels of ABCA1 were measured using murine primer probe set RTS1204 (forward sequence […], designated herein as SEQ ID NO: 97; reverse sequence […], designated herein as SEQ ID NO: 98; and probe sequence […], designated herein as SEQ ID NO: 99). RNA levels of apoA1 were measured using murine primer probe set RTS14737 (forward sequence […], designated herein as SEQ ID NO: 100; reverse sequence […], designated herein as SEQ ID NO: 101; and probe sequence […], designated herein as SEQ ID NO: 102). RNA levels of SRB1 were measured using murine primer probe set mSRB-1 (forward sequence […], designated herein as SEQ ID NO: 103; reverse sequence ATGCGACTTGTCAGGCTGG, designated herein as SEQ ID NO: 104; and probe sequence […], designated herein as SEQ ID NO: 105).

[6] = system: murine TTC39B mRNA; assay: Dose-dependent antisense inhibition of murine TTC39B in mouse primary hepatocytes (Example 3); type: cell-based; conditions: cytofectin, ~16 h
Procedure: Cells were plated at a density of 10,000 cells per well and transfected using cytofectin reagent with 6.25 nM, 12.5 nM, 25 nM, 50 nM, 100 nM, and 200 nM concentrations of antisense oligonucleotide, as specified in Table 4. After a treatment period of approximately 16 hours, RNA was isolated from the cells and TTC39B mRNA levels were measured by quantitative real-time PCR. Murine primer probe set mTtc39b_LTS00287 was used to measure mRNA levels. TTC39B mRNA levels were adjusted according to total RNA content, as measured by RIBOGREEN®. Results are presented as percent inhibition of TTC39B, relative to untreated control cells.

[7] = system: PCSK9 mRNA; assay: PCSK9 mRNA levels in C57BL/6 mice; type: in vivo, mouse; conditions: 50 mg/kg/week, 6 weeks, compared to PBS control
Procedure: as §1
The effect of inhibition of TTC39B in mice on cholesterol homeostasis was studied. PCSK9 mRNA levels were measured using the murine primer probe set mPCSK9 (forward sequence ACCGACTTCAACAGCGTGC, designated herein as SEQ ID NO: 106; reverse sequence GGCTGTCACACTTGCTCGC, designated herein as SEQ ID NO: 107, probe sequence AGGATGGGACACGCTTCCACAGACAX, wherein X is a fluorophore, designated herein as SEQ ID NO: 108). LDLR mRNA levels were measured using the murine primer probe set mLDLR (forward sequence GACCGCAGCGAGTACACCA, designated herein as SEQ ID NO: 109; reverse sequence TCACCTCCGTGTCGAGAGC, designated herein as SEQ ID NO: 110, probe sequence […], designated herein as SEQ ID NO: 111). The results are presented as percentage inhibition compared to the PBS control.

[8] = system: APOA1 plasma protein; assay: APOA1 plasma protein levels in C57BL/6 mice; type: in vivo, mouse; parameters: APOA1 plasma protein levels: unit not given here
Procedure: as §1

[9] = Week 0 (before treatment), 50 mg/kg/week

Question: With “CGGATGATTCTTGCTGGTAA (antisense e[5mC]*eG*eG*eA*eT*dG*dA*dT*dT*d[5mC]*dT*dT*dG*d[5mC]*dT*eG*eG*eT*eA*eA) [ISIS 447114]” as the sequence, how does the “percent inhibition of TTC39B mRNA” value ([1]; 25 nM) read?
Answer: Its value is 42%.

Question: And the “percent inhibition of TTC39B mRNA” value ([1]; 50 nM)?
Answer: The value was 70%.

Question: And the “percent inhibition of TTC39B mRNA” value ([1]; 100 nM)?
Answer: Its value is 85%.

Question: What about the “percent inhibition of TTC39B mRNA” value ([1]; 200 nM) of the same sequence?
Answer: The value was 92%.

Question: What about the “total cholesterol % increase over baseline” value ([2]; 50 mg/kg/week, 6 weeks, baseline average of 72 mg/dL) of the same sequence?
Answer: Its value is “+61%”.

Question: And the HDL cholesterol levels [2, 9]?
Answer: The HDL cholesterol levels was 42 mg/dL.

Question: And the LDL cholesterol levels [2, 9]?
Answer: The LDL cholesterol levels was 11 mg/dL.

Question: What about the total cholesterol levels [2, 9] of the same sequence?
Answer: Its total cholesterol levels is 66 mg/dL.

Question: What about the triglyceride levels [2, 9] of the same sequence?
Answer: Its triglyceride levels is 107 mg/dL.

Question: What about the HDL cholesterol levels ([2]; Week 3, 50 mg/kg/week) of the same sequence?
Answer: The HDL cholesterol levels was 47 mg/dL.

Question: And the “HDL cholesterol levels (% change over baseline)” value ([2]; Week 3, 50 mg/kg/week)?
Answer: Its value is “+14%”.

Question: And the LDL cholesterol levels ([2]; Week 3, 50 mg/kg/week)?
Answer: The LDL cholesterol levels was 12 mg/dL.

Question: And the total cholesterol levels ([2]; Week 3, 50 mg/kg/week)?
Answer: The total cholesterol levels was 70 mg/dL.

Question: What about the triglyceride levels ([2]; Week 3, 50 mg/kg/week) of the same sequence?
Answer: Its triglyceride levels is 66 mg/dL.

Question: What about the HDL cholesterol levels ([2]; Week 6, 50 mg/kg/week) of the same sequence?
Answer: The HDL cholesterol levels was 96 mg/dL.

Question: And the “HDL cholesterol levels (% change over baseline)” value ([2]; Week 6, 50 mg/kg/week)?
Answer: Its value is “+130%”.

Question: And the LDL cholesterol levels ([2]; Week 6, 50 mg/kg/week)?
Answer: The LDL cholesterol levels was 19 mg/dL.

Question: What about the total cholesterol levels ([2]; Week 6, 50 mg/kg/week) of the same sequence?
Answer: The total cholesterol levels was 114 mg/dL.

Question: And the triglyceride levels ([2]; Week 6, 50 mg/kg/week)?
Answer: Its triglyceride levels is 113 mg/dL.

Question: And the “Kidney weight after treatment” value ([3]; 50 mg/kg/week, 6 weeks)?
Answer: Its value is 0.33 g.

Question: What about the “Liver weight after treatment” value ([3]; 50 mg/kg/week, 6 weeks) of the same sequence?
Answer: The value was 1.3 g.

Question: And the “Spleen weight after treatment” value ([3]; 50 mg/kg/week, 6 weeks)?
Answer: The value was 0.09 g.

Question: And the body weight ([3]; Week 3, 50 mg/kg/week)?
Answer: Its body weight is 26 g.

Question: And the body weight ([3]; Week 6, 50 mg/kg/week)?
Answer: The body weight was 27 g.

Question: And the body weight ([3]; week 1, 50 mg/kg/week)?
Answer: The body weight was 25 g.

Question: What about the body weight ([3]; week 2, 50 mg/kg/week) of the same sequence?
Answer: Its body weight is 25 g.

Question: What about the body weight ([3]; week 4, 50 mg/kg/week) of the same sequence?
Answer: Its body weight is 26 g.

Question: And the body weight ([3]; week 5, 50 mg/kg/week)?
Answer: The body weight was 27 g.

Question: And the glucose levels [4, 9]?
Answer: The glucose levels was 293 mg/dL.

Question: What about the glucose levels ([4]; Week 3, 50 mg/kg/week) of the same sequence?
Answer: The glucose levels was 229 mg/dL.

Question: What about the glucose levels ([4]; Week 6, 50 mg/kg/week) of the same sequence?
Answer: Its glucose levels is 232 mg/dL.

Question: What about the “srb1 mRNA levels (effect of TTC39B inhibition)” value [5] of the same sequence?
Answer: Its value is −12.

Question: What about the “percent inhibition of TTC39B mRNA” value ([6]; 6.25 nM) of the same sequence?
Answer: The value was 6%.

Question: And the “percent inhibition of TTC39B mRNA” value ([6]; 12.5 nM)?
Answer: Its value is 5%.

Question: And the “percent inhibition of TTC39B mRNA” value ([6]; 25.0 nM)?
Answer: Its value is 34%.

Question: What about the “percent inhibition of TTC39B mRNA” value ([6]; 50.0 nM) of the same sequence?
Answer: Its value is 71%.

Question: What about the “percent inhibition of TTC39B mRNA” value ([6]; 100.0 nM) of the same sequence?
Answer: The value was 90%.

Question: And the “percent inhibition of TTC39B mRNA” value ([6]; 200.0 nM)?
Answer: Its value is 93%.

Question: What about the “Percent inhibition PCSK9 mRNA levels” value [7] of the same sequence?
Answer: Its value is 24%.

Question: What about the “APOA1 plasma protein % change over the baseline” value ([8]; 50 mg/kg/week, 6 weeks) of the same sequence?
Answer: Its value is “+122%”.

Question: What about the “APOA1 plasma protein levels” value [8, 9] of the same sequence?
Answer: The value was “+9”.

Question: And the “APOA1 plasma protein levels” value ([8]; Week 3, 50 mg/kg/week)?
Answer: Its value is “+12”.

Question: What about the “APOA1 plasma protein levels” value ([8]; Week 6, 50 mg/kg/week) of the same sequence?
Answer: Its value is “+22”.
